Reference: PubChem BioAssay (NCI)
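48-hour exposure; five concentrations; linearly interpolated endpoints. Definition used: TGI = concentration required for complete inhibition of growth.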

Legend:
Experiment in all cases: growth of human tumour cells (NCI), 48 h
OVCAR-3 ovarian = test system: OVCAR-3 ovarian
EKVX NSCLC = test system: EKVX NSCLC
SK-MEL-2 melanoma = test system: SK-MEL-2 melanoma
SK-MEL-5 melanoma = test system: SK-MEL-5 melanoma
CCRF-CEM leukemia = test system: CCRF-CEM leukemia
NCI/ADR-RES ovarian = test system: NCI/ADR-RES ovarian
NCI-H460 lung = test system: NCI-H460 lung
HCT-15 colon = test system: HCT-15 colon
SF-295 CNS = test system: SF-295 CNS
SW-620 colon = test system: SW-620 colon
COLO 205 colon = test system: COLO 205 colon
SF-268 CNS = test system: SF-268 CNS
UO-31 renal = test system: UO-31 renal
CAKI-1 renal = test system: CAKI-1 renal
SK-OV-3 ovarian = test system: SK-OV-3 ovarian
LOX IMVI melanoma = test system: LOX IMVI melanoma
TK-10 renal = test system: TK-10 renal
HCT-116 colon = test system: HCT-116 colon
RXF 393 renal = test system: RXF 393 renal
UACC-257 melanoma = test system: UACC-257 melanoma
HCC-2998 colon = test system: HCC-2998 colon
SF-539 CNS = test system: SF-539 CNS
DU-145 prostate = test system: DU-145 prostate
MCF7 breast = test system: MCF7 breast
OVCAR-4 ovarian = test system: OVCAR-4 ovarian
HS 578T breast = test system: HS 578T breast
HOP-62 NSCLC = test system: HOP-62 NSCLC
MDA-MB-435 = test system: MDA-MB-435
U251 CNS = test system: U251 CNS
MDA-MB-231 breast = test system: MDA-MB-231 breast
IGROV1 ovarian = test system: IGROV1 ovarian
NCI-H23 lung = test system: NCI-H23 lung
KM12 colon = test system: KM12 colon
OVCAR-8 ovarian = test system: OVCAR-8 ovarian
786-0 renal = test system: 786-0 renal
A498 renal = test system: A498 renal
SN12C renal = test system: SN12C renal
RPMI-8226 leukemia = test system: RPMI-8226 leukemia
HOP-92 NSCLC = test system: HOP-92 NSCLC
ACHN renal = test system: ACHN renal
M14 melanoma = test system: M14 melanoma
MDA-N = test system: MDA-N
SK-MEL-28 melanoma = test system: SK-MEL-28 melanoma
PC-3 prostate = test system: PC-3 prostate
OVCAR-5 ovarian = test system: OVCAR-5 ovarian
BT-549 breast = test system: BT-549 breast
NCI-H226 lung = test system: NCI-H226 lung
HL-60(TB) leukemia = test system: HL-60(TB) leukemia
K-562 leukemia = test system: K-562 leukemia
UACC-62 melanoma = test system: UACC-62 melanoma
MOLT-4 leukemia = test system: MOLT-4 leukemia
MALME-3M melanoma = test system: MALME-3M melanoma
SNB-75 CNS = test system: SNB-75 CNS
HT29 colon = test system: HT29 colon
SNB-19 CNS = test system: SNB-19 CNS
SR leukemia = test system: SR leukemia
A549 NSCLC = test system: A549 NSCLC
T-47D breast = test system: T-47D breast
NCI-H522 lung = test system: NCI-H522 lung

`COc1cc([N+](=O)[O-])ccc1NC1=CC(=O)CCC1` was tested, and the TGI (OVCAR-3 ovarian) was over 100 µM, the TGI (EKVX NSCLC) was over 100 µM and the TGI (SK-MEL-2 melanoma) was over 100 µM. For the same compound, the TGI (SK-MEL-5 melanoma) was over 100 µM, the TGI (CCRF-CEM leukemia) was over 100 µM and the TGI (NCI/ADR-RES ovarian) was over 100 µM. For the same compound, the TGI (NCI-H460 lung) was over 100 µM, the TGI (HCT-15 colon) was over 100 µM and the TGI (SF-295 CNS) was over 100 µM. For the same compound, the TGI (SW-620 colon) was over 100 µM, the TGI (COLO 205 colon) was over 100 µM and the TGI (SF-268 CNS) was over 100 µM. For the same compound, the TGI (UO-31 renal) was over 100 µM, the TGI (CAKI-1 renal) was over 100 µM and the TGI (SK-OV-3 ovarian) was over 100 µM. It also gave a TGI (LOX IMVI melanoma) of over 100 µM, a TGI (TK-10 renal) of over 100 µM and a TGI (HCT-116 colon) of over 100 µM. It also gave a TGI (RXF 393 renal) of over 100 µM, a TGI (UACC-257 melanoma) of over 100 µM and a TGI (HCC-2998 colon) of over 100 µM. It also gave a TGI (SF-539 CNS) of over 100 µM, a TGI (DU-145 prostate) of over 100 µM and a TGI (MCF7 breast) of over 100 µM. The TGI (OVCAR-4 ovarian) was over 100 µM, the TGI (HS 578T breast) was over 100 µM and the TGI (HOP-62 NSCLC) was over 100 µM. For the same compound, the TGI (MDA-MB-435) was over 100 µM, the TGI (U251 CNS) was over 100 µM and the TGI (MDA-MB-231 breast) was over 100 µM. It also gave a TGI (IGROV1 ovarian) of over 100 µM, a TGI (NCI-H23 lung) of over 100 µM and a TGI (KM12 colon) of over 100 µM. The TGI (OVCAR-8 ovarian) was over 100 µM, the TGI (786-0 renal) was over 100 µM and the TGI (A498 renal) was over 100 µM. The TGI (SN12C renal) was over 100 µM, the TGI (RPMI-8226 leukemia) was over 100 µM and the TGI (HOP-92 NSCLC) was over 100 µM. The TGI (ACHN renal) was over 100 µM, the TGI (M14 melanoma) was over 100 µM and the TGI (MDA-N) was over 100 µM. It also gave a TGI (SK-MEL-28 melanoma) of over 100 µM, a TGI (PC-3 prostate) of over 100 µM and a TGI (OVCAR-5 ovarian) of over 100 µM. The TGI (BT-549 breast) was over 100 µM, the TGI (NCI-H226 lung) was over 100 µM and the TGI (HL-60(TB) leukemia) was over 100 µM. The TGI (K-562 leukemia) was over 100 µM, the TGI (UACC-62 melanoma) was over 100 µM and the TGI (MOLT-4 leukemia) was over 100 µM. For the same compound, the TGI (MALME-3M melanoma) was over 100 µM, the TGI (SNB-75 CNS) was over 100 µM and the TGI (HT29 colon) was over 100 µM. It also gave a TGI (SNB-19 CNS) of over 100 µM, a TGI (SR leukemia) of over 100 µM and a TGI (A549 NSCLC) of over 100 µM. It also gave a TGI (T-47D breast) of over 100 µM.
With `Cn1c2ccccc2c(=NNc2ccccc2C(=O)O)c2ccccc21` the TGI (OVCAR-3 ovarian) was 28.5 µM, the TGI (EKVX NSCLC) was 38 µM and the TGI (SK-MEL-2 melanoma) was 43.7 µM. For the same compound, the TGI (SK-MEL-5 melanoma) was 28 µM, the TGI (CCRF-CEM leukemia) was 72 µM and the TGI (NCI/ADR-RES ovarian) was 60.8 µM. It also gave a TGI (NCI-H460 lung) of 39.7 µM, a TGI (HCT-15 colon) of 27.5 µM and a TGI (SF-295 CNS) of 82.6 µM. It also gave a TGI (NCI-H522 lung) of 33.3 µM, a TGI (SW-620 colon) of 84.8 µM and a TGI (COLO 205 colon) of 34.1 µM. For the same compound, the TGI (SF-268 CNS) was 56.3 µM, the TGI (UO-31 renal) was 64.5 µM and the TGI (CAKI-1 renal) was 91.2 µM. The TGI (SK-OV-3 ovarian) was 71.1 µM, the TGI (LOX IMVI melanoma) was 25.6 µM and the TGI (TK-10 renal) was 75.2 µM. For the same compound, the TGI (HCT-116 colon) was 37.7 µM, the TGI (RXF 393 renal) was 33.3 µM and the TGI (UACC-257 melanoma) was 51.5 µM. The TGI (HCC-2998 colon) was 46.8 µM, the TGI (SF-539 CNS) was 36.1 µM and the TGI (DU-145 prostate) was over 100 µM. For the same compound, the TGI (MCF7 breast) was 30.5 µM, the TGI (OVCAR-4 ovarian) was 44.9 µM and the TGI (HS 578T breast) was 83.1 µM. The TGI (HOP-62 NSCLC) was 75.4 µM, the TGI (MDA-MB-435) was 39.6 µM and the TGI (U251 CNS) was 34.6 µM. For the same compound, the TGI (MDA-MB-231 breast) was 59.1 µM, the TGI (IGROV1 ovarian) was 94.3 µM and the TGI (NCI-H23 lung) was 76.8 µM. For the same compound, the TGI (KM12 colon) was 42.2 µM, the TGI (OVCAR-8 ovarian) was 66.2 µM and the TGI (786-0 renal) was over 100 µM. For the same compound, the TGI (SN12C renal) was 83.1 µM, the TGI (RPMI-8226 leukemia) was 53.3 µM and the TGI (HOP-92 NSCLC) was 67.6 µM. For the same compound, the TGI (ACHN renal) was 48.2 µM, the TGI (M14 melanoma) was 53.5 µM and the TGI (MDA-N) was 46.4 µM. It also gave a TGI (SK-MEL-28 melanoma) of 57.5 µM, a TGI (PC-3 prostate) of 42.3 µM and a TGI (OVCAR-5 ovarian) of 85 µM. For the same compound, the TGI (BT-549 breast) was 61 µM, the TGI (NCI-H226 lung) was 45.8 µM and the TGI (HL-60(TB) leukemia) was 44.5 µM. It also gave a TGI (K-562 leukemia) of 28.5 µM, a TGI (UACC-62 melanoma) of 54 µM and a TGI (MOLT-4 leukemia) of over 100 µM. For the same compound, the TGI (MALME-3M melanoma) was 43.7 µM, the TGI (SNB-75 CNS) was 67 µM and the TGI (HT29 colon) was 38.1 µM. It also gave a TGI (SNB-19 CNS) of over 100 µM, a TGI (SR leukemia) of 44.6 µM and a TGI (A549 NSCLC) of 77.2 µM. For the same compound, the TGI (T-47D breast) was 88.3 µM.
